# pIC50: −log10 of the molar value.
# Target: T1, human sortilin (sSORT) (Homo sapiens, UniProt Q99523)
# T1 sequence (Q99523 78-756 limits assumed): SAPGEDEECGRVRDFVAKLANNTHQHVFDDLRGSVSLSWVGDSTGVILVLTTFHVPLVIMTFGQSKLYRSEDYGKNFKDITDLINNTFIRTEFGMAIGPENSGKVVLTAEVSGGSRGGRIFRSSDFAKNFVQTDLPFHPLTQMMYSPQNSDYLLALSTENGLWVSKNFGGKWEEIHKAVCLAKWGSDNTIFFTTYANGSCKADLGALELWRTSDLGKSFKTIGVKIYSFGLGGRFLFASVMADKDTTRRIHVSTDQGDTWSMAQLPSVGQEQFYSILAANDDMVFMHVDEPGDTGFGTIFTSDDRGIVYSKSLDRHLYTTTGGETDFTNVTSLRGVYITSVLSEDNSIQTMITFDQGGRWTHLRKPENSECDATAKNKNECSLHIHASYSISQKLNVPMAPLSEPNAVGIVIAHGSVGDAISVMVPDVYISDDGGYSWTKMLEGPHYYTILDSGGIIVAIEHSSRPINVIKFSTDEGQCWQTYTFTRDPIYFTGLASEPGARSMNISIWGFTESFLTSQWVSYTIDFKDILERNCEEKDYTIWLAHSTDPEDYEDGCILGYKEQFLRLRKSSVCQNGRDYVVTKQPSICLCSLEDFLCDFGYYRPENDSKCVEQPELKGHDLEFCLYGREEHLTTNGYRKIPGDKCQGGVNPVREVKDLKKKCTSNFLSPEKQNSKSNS
# Experiment: Neurotensin competitive fluorescence polarization binding assay (FPA)
# Conditions: mean IC50 values for sortilin inhibitors, IC50 (nM), 100 nM sSORT, 10 nM Neurotensin-Ahx-FITC, 1 h room temperature
# Method: Fresh 0.1% bovine serum albumin (BSA) was added to the assay buffer to obtain the final concentration: 50 mM HEPES, pH 7.4; 100 mM NaCl; 2.0 mM CaCl2; 0.1% BSA; 0.1% TWEEN® 20. The sortilin inhibitors of the invention and reference compounds (see Table 1) analyzed in the screen and neurotensin (used as an assay control) were serially diluted in ten different concentrations in assay buffer. In each well of a Nunc® MaxiSorp™ 384-well plate (Sigma Aldrich), 100 nM sSORT was mixed with pre-diluted sortilin inhibitors and 10 nM Neurotensin-Ahx-FITC in assay buffer adjusted to contain 1% DMSO in a final volume of 20 μl. The plate was then briefly centrifuged prior to 1 h incubation at room temperature in the dark.
row,Molecule,IC50 [nM]
1,"Cc1nc(N(C)C)ncc1C(=O)NC(/C=C/C(C)(C)C)C(=O)O (racemic) [SI1, (E)-2-[2-(dimethylamino)-4-methyl-5-pyrimidinylcarbonylamino]-5,5-dimethyl-3-hexenoic acid]",59
2,"Cc1nc(N(C)C)ncc1C(=O)NC(/C=C/C(C)(C)C)C(=O)O (single isomer, unassigned) [SI1 (active enantiomer), (E)-2-[2-(dimethylamino)-4-methyl-5-pyrimidinylcarbonylamino]-5,5-dimethyl-3-hexenoic acid]",9
3,"CC(C)(C)/C=C/C(NC(=O)C1CN(c2ccccn2)CCN1)C(=O)O (single isomer, unassigned) [SI3 diastereomer 1, (E)-5,5-dimethyl-2-[4-(2-pyridyl)-2-piperazinylcarbonylamino]-3-hexenoic acid]",135
4,"CC(C)(C)/C=C/C(NC(=O)C1CN(c2ccccn2)CCN1)C(=O)O (single isomer, unassigned) [SI3 diastereomer 2, (E)-5,5-dimethyl-2-[4-(2-pyridyl)-2-piperazinylcarbonylamino]-3-hexenoic acid]",339
5,"CC(C)(C)/C=C/C(NC(=O)C1CN(c2ccncc2)CCN1)C(=O)O (single isomer, unassigned) [SI4 diastereomer 1, (E)-5,5-dimethyl-2-[4-(4-pyridyl)-2-piperazinylcarbonylamino]-3-hexenoic acid]",229
6,"CC(C)(C)/C=C/C(NC(=O)C1CN(c2ccncc2)CCN1)C(=O)O (single isomer, unassigned) [SI4 diastereomer 2, (E)-5,5-dimethyl-2-[4-(4-pyridyl)-2-piperazinylcarbonylamino]-3-hexenoic acid]",912
7,"CC(C)(C)/C=C/C(NC(=O)c1ccc(Oc2ccccc2)nc1)C(=O)O (single isomer, unassigned) [SI (active enantiomer), (E)-5,5-dimethyl-2-(6-phenoxynicotinoylamino)-3-hexenoic acid]",5
8,"Cc1nc(N(C)C)ncc1C(=O)NC(CCC(C)(C)C)C(=O)O (centres unmarked) [RC1, 2-[2-(dimethylamino)-4-methyl-5-pyrimidinylcarbonylamino]-5,5-dimethylhexanoic acid, reference compound]",123
9,"CC(C)(C)CC[C@H](NC(=O)c1ccc(Oc2ccccc2)nc1)C(=O)O [RC2 (active enantiomer), (S)-5,5-dimethyl-2-(6-phenoxynicotinoylamino)hexanoic acid, reference compound]",28
10,"CC(C)(C)/C=C/C(NC(=O)c1ccc(C(=O)C(F)(F)F)cc1)C(=O)O (centres unmarked) [SI2, (E)-5,5-dimethyl-2-[p-(2,2,2-trifluoroacetyl)benzoylamino]-3-hexenoic acid]",234
11,"CC(C)(C)/C=C/C(NC(=O)c1cccc(-n2cnnc2)c1)C(=O)O (centres unmarked) [SI6, (E)-5,5-dimethyl-2-[m-(4H-1,2,4-triazol-4-yl)benzoylamino]-3-hexenoic acid]",62
12,"Cc1cc2[nH]c(C(=O)NC(/C=C/C(C)(C)C)C(=O)O)cc2cn1 (centres unmarked) [SI7, (E)-5,5-dimethyl-2-(6-methyl-1H-1,5-diazainden-2-ylcarbonylamino)-3-hexenoic acid]",89
13,"CC(C)Cc1cc(C(=O)NC(/C=C/C(C)(C)C)C(=O)O)n(C)n1 (centres unmarked) [SI9, (E)-2-(3-isobutyl-1-methyl-5-pyrazolylcarbonylamino)-5,5-dimethyl-3-hexenoic acid]",102
14,"CN(C)c1ncc(C(=O)NC(/C=C/C(C)(C)C)C(=O)O)cn1 (centres unmarked) [SI17, (E)-2-[2-(dimethylamino)-5-pyrimidinylcarbonylamino]-5,5-dimethyl-3-hexenoic acid]",149
15,"CN(C)c1nccc(C(=O)NC(/C=C/C(C)(C)C)C(=O)O)n1 (centres unmarked) [SI19, (E)-2-[2-(dimethylamino)-4-pyrimidinylcarbonylamino]-5,5-dimethyl-3-hexenoic acid]",851
16,"Cc1cc(C(=O)NC(/C=C/C(C)(C)C)C(=O)O)nc(N(C)C)n1 (centres unmarked) [SI20, (E)-2-[2-(dimethylamino)-6-methyl-4-pyrimidinylcarbonylamino]-5,5-dimethyl-3-hexenoic acid]",1000

row,Molecule,IC50 [nM]
1,"CC(C)(C)/C=C/C(NC(=O)c1ccc(-n2cnnc2)cc1)C(=O)O (centres unmarked) [SI23, (E)-5,5-dimethyl-2-[p-(4H-1,2,4-triazol-4-yl)benzoylamino]-3-hexenoic acid]",158
2,"CC(C)(C)/C=C/C(NC(=O)c1cccc(-n2cncn2)c1)C(=O)O (centres unmarked) [SI24, (E)-5,5-dimethyl-2-[m-(1H-1,2,4-triazol-1-yl)benzoylamino]-3-hexenoic acid]",52
3,"CC(C)(C)/C=C/C(NC(=O)c1cc(Br)c[nH]1)C(=O)O (centres unmarked) [SI28, (E)-2-(4-bromo-2-pyrrolylcarbonylamino)-5,5-dimethyl-3-hexenoic acid]",55
4,"CC(C)(C)/C=C/C(NC(=O)c1ccc(Cl)[nH]1)C(=O)O (centres unmarked) [SI29, (E)-2-(5-chloro-2-pyrrolylcarbonylamino)-5,5-dimethyl-3-hexenoic acid]",80
5,"Cn1cc(Cl)cc1C(=O)NC(/C=C/C(C)(C)C)C(=O)O (centres unmarked) [SI31, (E)-2-(4-chloro-1-methyl-2-pyrrolylcarbonylamino)-5,5-dimethyl-3-hexenoic acid]",71
6,"CC(C)(C)/C=C/C(NC(=O)c1ccc(Oc2cccnc2)cc1)C(=O)O (centres unmarked) [SI34, (E)-5,5-dimethyl-2-[p-(3-pyridyloxy)benzoylamino]-3-hexenoic acid]",56
7,"CC(C)(C)/C=C/C(NC(=O)c1cnc(Oc2ccccc2)nc1)C(=O)O (centres unmarked) [SI44, (E)-5,5-dimethyl-2-(2-phenoxy-5-pyrimidinylcarbonylamino)-3-hexenoic acid]",158
8,"CC(C)(C)/C=C/C(NC(=O)c1cccc(-n2cnnc2)n1)C(=O)O (centres unmarked) [SI50, (E)-5,5-dimethyl-2-[6-(4H-1,2,4-triazol-4-yl)-2-pyridylcarbonylamino]-3-hexenoic acid]",668
9,"CC(C)(C)/C=C/C(NC(=O)c1cccc(-c2cccs2)c1)C(=O)O (centres unmarked) [SI52, (E)-5,5-dimethyl-2-[m-(2-thienyl)benzoylamino]-3-hexenoic acid]",31
10,"CC(C)(C)/C=C/C(NC(=O)c1ccc(Oc2ccc(Cl)cc2)cc1)C(=O)O (centres unmarked) [SI53, (E)-2-[p-(p-chlorophenoxy)benzoylamino]-5,5-dimethyl-3-hexenoic acid]",148
11,"CC(C)(C)/C=C/C(NC(=O)c1ccc(Oc2cccc(Cl)c2)cc1)C(=O)O (centres unmarked) [SI54, (E)-2-[p-(m-chlorophenoxy)benzoylamino]-5,5-dimethyl-3-hexenoic acid]",158
12,"CC(C)(C)/C=C/C(NC(=O)c1ccc(COc2ccccc2)cc1)C(=O)O (centres unmarked) [SI55, (E)-5,5-dimethyl-2-[p-(phenoxymethyl)benzoylamino]-3-hexenoic acid]",116
13,"CCn1nc(CC(C)C)cc1C(=O)NC(/C=C/C(C)(C)C)C(=O)O (centres unmarked) [SI56, (E)-2-(1-ethyl-3-isobutyl-5-pyrazolylcarbonylamino)-5,5-dimethyl-3-hexenoic acid]",95
14,"Cn1nc(Cl)cc1C(=O)NC(/C=C/C(C)(C)C)C(=O)O (centres unmarked) [SI57, (E)-2-(3-chloro-1-methyl-5-pyrazolylcarbonylamino)-5,5-dimethyl-3-hexenoic acid]",45
15,"Cn1nc(-c2cccnc2)cc1C(=O)NC(/C=C/C(C)(C)C)C(=O)O (centres unmarked) [SI59, (E)-5,5-dimethyl-2-[1-methyl-3-(3-pyridyl)-5-pyrazolylcarbonylamino]-3-hexenoic acid]",316
16,"Cn1nc(C(=O)NC(/C=C/C(C)(C)C)C(=O)O)cc1-c1ccc(Cl)c(Cl)c1 (centres unmarked) [SI61, (E)-2-[5-(3,4-dichlorophenyl)-1-methyl-3-pyrazolylcarbonylamino]-5,5-dimethyl-3-hexenoic acid]",117

# Same assay, conditions: read-out: mean IC50 values for sortilin inhibitors, IC50; 100 nM sSORT, 10 nM Neurotensin-Ahx-FITC, 1 h room temperature
row,Molecule,pIC50
1,"(E)-2-(2-isopropyl-4-methyl-5-pyrimidinylcarbonylamino)-5,5-dimethyl-3-hexenoic acid [SI49]",7.17

# System: MDA-MB-231 breast cancer cell line
# Experiment: Secondary sphere formation assay in MDA-MB-231
# Type: cell-based
# Conditions: MDA-MB-231, in combination with 500 nM progranulin, 48 hours
# Method: C-terminal Progranulin (progranulin) (Casio, peptide sequence: […], SEQ ID NO: 5) were reconstituted in sterile PBS upon delivery, aliquoted and stored at −20° C. Working stock concentrations were achieved by dilution in culture media. […] 5% CO2 and 21% O2 before performing the primary followed by secondary sphere formation assay.
# The sphere formation assay was performed as described previously (Mammary Gland Biol Neoplasia, 2012, 17(2): 111-117). Briefly, single cell suspensions were obtained following treatment with respective sortilin inhibitors SI1, SI5, SI8, SI25, SI32, SI39, SI51 and SI62 of the invention and seeded in phenol red-free DMEM/F-12 (Gibco®, Life Technologies), supplemented with 1% B27 supplement (Fisher Scientific, Invitrogen), 1% P/S and 20 ng/ml EGF (BD Biosciences) onto non-adherent polyhema-coated plates. After cultivation for five days, single cell suspensions were obtained from the primary spheres and seeded again in phenol red-free DMEM/F-12 supplemented with 1% B27 supplement, 1% P/S and 20 ng/ml EGF onto non-adherent polyhema-coated plates for 5-7 days. Subsequently, spheres greater than 50 μm in diameter were counted manually in the microscope.
row,Molecule,progranulin induced secondary sphere formation
1,"Cc1nc(N(C)C)ncc1C(=O)NC(/C=C/C(C)(C)C)C(=O)O (racemic) [SI1, (E)-2-[2-(dimethylamino)-4-methyl-5-pyrimidinylcarbonylamino]-5,5-dimethyl-3-hexenoic acid]",reduced sphere formation

# Same assay, conditions: MDA-MB-231, without progranulin, 48 hours
row,Molecule,"baseline sphere formation, compound used alone"
1,"Cc1nc(N(C)C)ncc1C(=O)NC(/C=C/C(C)(C)C)C(=O)O (racemic) [SI1, (E)-2-[2-(dimethylamino)-4-methyl-5-pyrimidinylcarbonylamino]-5,5-dimethyl-3-hexenoic acid]",reduced baseline sphere formation
